From patent publication US12575567B2, “Fungicidal compositions” (priority 2020, dated 2026)
Where “and” joins values, the source holds several entries; their conditions need not be identical. Identical values can stand only once. Numbered stars: 1 amine (or outer) side, 2 acyl side, 3 side chain; on linkers, the order of the positions; unused ones are H or OH. Square brackets hold non-standard residues; d marks the D form. Peptide text beside a SMILES is read from it. X1 = CC[C@@H](C)[C@@H](O[*:1])C(=O)[*:2]; NMeVal(β-OH) = CN[C@H](C(=O)O)C(C)(C)O; NMeF = CN[C@@H](Cc1ccccc1)C(=O)O; aIle = CC[C@@H](C)[C@H](N)C(=O)O; NMeV = CN[C@H](C(=O)O)C(C)C

Tests used:
Botrytis cinerea = assay: Liquid culture test in well plates, Botrytis cinerea (Gray Mould), Example 1-1; type: cell-based; conditions: 72 hours; for (A) inhibition: Aureobasidin A alone
Experimental: (§1) Mycelia fragments or conidia suspensions of a fungus, prepared either freshly from liquid cultures of the fungus or from cryogenic storage, are directly mixed into nutrient broth. DMSO solutions of the test compound (max. 10 mg/mL) is diluted with 0.025% Tween20 by factor 50 and 10 μL of this solution is pipetted into a microtiter plate (96-well format). […] The test plates are incubated in the dark at 24° C. and 96% relative humidity (rh). The inhibition of fungal growth is determined photometrically and visually after 3-7 days, depending on the pathosystem, and percent antifungal activity relative to the untreated check is calculated.
Conidia of the fungus from cryogenic storage were directly mixed into nutrient broth (PDB potato dextrose broth). After placing a DMSO solution of the test compositions into a microtiter plate (96-well format), the nutrient broth containing the fungal spores was added.

Alternaria solani = assay: Liquid culture test in well plates, Alternaria solani (Early Blight of Tomato/Potato), Example 1-2; type: cell-based; conditions: 48 hours; for (A) inhibition: Aureobasidin A alone
Experimental: as §1, with “The inhibition of fungal growth is determined photometrically and visually after 3-7 days, depending on the pathosystem, and percent antifungal activity relative to the untreated check is calculated.” left out
Conidia of the fungus from cryogenic storage were directly mixed into nutrient broth (PDB potato dextrose broth). After placing a DMSO solution of the test compositions into a microtiter plate (96-well format) the nutrient broth containing the fungal spores was added.

[1] = component (B) alone, 0.0016 ppm
[2] = component (B) alone, 0.0031 ppm
[3] = component (B) alone, 0.0125 ppm
[4] = component (B) alone, 0.0250 ppm
[5] = component (B) alone, 0.1250 ppm
[6] = Alternaria solani, component (B) alone

With `CON(C(=O)c1cn(C)nc1C(F)F)C(C)Cc1c(Cl)cc(Cl)cc1Cl` (stereo not shown) [Pydiflumetofen, pydiflumetofen, reference compound] the “(B) inhibition” value (Botrytis cinerea; [1]) was 27%, the “(B) inhibition” value (Alternaria solani; component (B) alone, 0.0008 ppm) was 28% and the “(B) inhibition” value (Alternaria solani; [2]) was 71%.
For `CC[C@@H](C)[C@@H]1NC(=O)[C@@H]2CCCN2C(=O)[C@H](Cc2ccccc2)N(C)C(=O)[C@H](Cc2ccccc2)NC(=O)[C@H](C(C)C)N(C)C(=O)[C@@H]([C@H](C)CC)OC(=O)[C@H](C(C)(C)O)N(C)C(=O)[C@H](CC(C)C)NC(=O)[C@H](C(C)C)N(C)C1=O` [Aureobasidin A] (cyclo(F[NMeF]P[aIle][NMeV]L[NMeVal(β-OH)][X1][NMeV])), the “(A) inhibition” value (Botrytis cinerea; 0.0002 ppm) was 0%, the “(A) inhibition” value (Botrytis cinerea; 0.0003 ppm) was 0% and 3% and the “(A) inhibition” value (Botrytis cinerea; 0.0006 ppm) was 0%. For the same compound, the “(A) inhibition” value (Botrytis cinerea; 0.0012 ppm) was 0% and 7% and 8%, the “(A) inhibition” value (Botrytis cinerea; 0.0100 ppm) was 23% and 25% and 24% and the “(A) inhibition” value (Botrytis cinerea; 0.0200 ppm) was 38% and 50% and 33%. For the same compound, the “(A) inhibition” value (Botrytis cinerea; 0.040 ppm) was 85%, the “(A) inhibition” value (Alternaria solani; 0.0001 ppm) was 8% and 2% and 0% and the “(A) inhibition” value (Alternaria solani; 0.0002 ppm) was 2% and 0%. For the same compound, the “(A) inhibition” value (Alternaria solani; 0.0003 ppm) was 0% and 3%, the “(A) inhibition” value (Alternaria solani; 0.0006 ppm) was 9% and 6% and 0% and the “(A) inhibition” value (Alternaria solani; 0.0012 ppm) was 0%. The “(A) inhibition” value (Alternaria solani; 0.0025 ppm) was 2% and 1% and 0%, the “(A) inhibition” value (Alternaria solani; 0.005 ppm) was 12% and the “(A) inhibition” value (Alternaria solani; 0.0100 ppm) was 0%. The “(A) inhibition” value (Alternaria solani; 0.040 ppm) was 46%.
In the case of `Cc1cccc(-n2nnn(C)c2=O)c1COc1ccn(-c2ccc(Cl)cc2)n1` [Metyltetrapole, metyltetrapole], the “(B) inhibition” value (Botrytis cinerea; [3]) is reported as 43%, the “(B) inhibition” value (Botrytis cinerea; [4]) is reported as 56% and the “(B) inhibition” value (Alternaria solani; [3]) is reported as 73%.
With `CC(C)c1ccc(Cl)cc1CN(C(=O)c1c(C(F)F)nn(C)c1F)C1CC1` [Isoflucypram, isoflucypram, reference compound] the “(B) inhibition” value (Botrytis cinerea; [2]) was 37% and the “(B) inhibition” value (Alternaria solani; [1]) was 22%.
In the case of `CO/C=C(/C(=O)OC)c1ccccc1Oc1cc(Oc2ccccc2C#N)ncn1` [Azoxystrobin, azoxystrobin], the “(B) inhibition” value (Botrytis cinerea; component (B) alone, 0.0313 ppm) is reported as 31% and the “(B) inhibition” value (Botrytis cinerea; [5]) is reported as 61%.
`CON=C(C(=O)OC)c1ccccc1CON=C(C)c1cccc(C(F)(F)F)c1` [Trifloxystrobin, trifloxystrobin, reference compound] was tested, and the inhibition at […] (Alternaria solani; Alternaria solani, component (B) alone, 0.0078 ppm) was 44% and the inhibition at 0.0313 ppm (Alternaria solani; [6]) was 71%.
`O=C(NCCc1ncc(C(F)(F)F)cc1Cl)c1ccccc1C(F)(F)F` [Fluopyram, fluopyram, reference compound] gave an inhibition at 0.125 ppm (Botrytis cinerea; Botrytis cinerea, component (B) alone, 0.1250 ppm) of 42%, an inhibition at 0.0313 ppm (Alternaria solani; [6]) of 49% and an inhibition at 0.0625 ppm (Alternaria solani; Alternaria solani, component (B) alone, 0.0625 ppm) of 63%.
With `O=[N+]([O-])c1cc(C(F)(F)F)c(Cl)c([N+](=O)[O-])c1Nc1ncc(C(F)(F)F)cc1Cl` [Fluazinam, fluazinam] the inhibition at 0.0006 ppm (Botrytis cinerea; Botrytis cinerea, component (B) alone, 0.0006 ppm) was 3%, the inhibition at 0.0012 ppm (Botrytis cinerea; Botrytis cinerea, component (B) alone, 0.0012 ppm) was 6% and the inhibition at 0.0025 ppm (Botrytis cinerea; Botrytis cinerea, component (B) alone, 0.0025 ppm) was 8%. It also gave an inhibition at 0.005 ppm (Botrytis cinerea; Botrytis cinerea, component (B) alone, 0.0050 ppm) of 6%, an inhibition at 0.01 ppm (Botrytis cinerea; Botrytis cinerea, component (B) alone, 0.0100 ppm) of 8% and an inhibition at 0.0003 ppm (Alternaria solani; Alternaria solani, component (B) alone, 0.0003 ppm) of 11%. The inhibition at 0.0025 ppm (Alternaria solani; Alternaria solani, component (B) alone, 0.0025 ppm) was 11% and the inhibition at 0.005 ppm (Alternaria solani; Alternaria solani, component (B) alone, 0.0050 ppm) was 11%.
In the case of `Cn1cc(C(=O)Nc2cccc3c2[C@@H]2CC[C@H]3C2=C(Cl)Cl)c(C(F)F)n1` (racemic) [Benzovindiflupyr, benzovindiflupyr], the “(B) inhibition” value (Botrytis cinerea; [2]) is reported as 26% and the “(B) inhibition” value (Botrytis cinerea; [4]) is reported as 57%.
`COc1ccnc(C(=O)N[C@@H](C)C(=O)O[C@@H](C)C(c2ccc(F)cc2)c2ccc(F)cc2)c1OC(C)=O` [Florylpicoxamid, florylpicoxamid] was tested, and the “(B) inhibition” value (Botrytis cinerea; component (B) alone, 0.0625 ppm) was 56% and the “(B) inhibition” value (Botrytis cinerea; [5]) was 59%.
